From patent US20240425491A1, “HETEROARYL COMPOUNDS USEFUL IN THE TREATMENT OF COGNITIVE DISORDERS” (University College Cardiff Consultants Limited, priority 2021, published 2024)

Key:
[1] = target: T1, human α5β3γ2 GABAARs in mouse L(tk−) cells (Homo sapiens, UniProt P18507+P31644); assay: In vitro electrophysiological recording assay (α5-GABAAR relative efficacy), QPatch; assay type: cell-based
T1 construct: expressed in transfected cells; host or cells: mouse L(tk−) cells, dexamethasone-inducible vector pMSGneo
How it was run: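 Whole-cell QPatch recordings at 20-22° C, −65 mV holding, in dexamethasone-induced (1 μM, 24 h) L(tk−) cells. Compound pre-applied ≥1 min, then co-applied with GABA EC10-20; percentage change in leak-corrected peak current, taken at ≥100× Ki, normalised to DMCM efficacy; 0.1% DMSO final.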

[2] = target: T2, human α5β3γ2L GABAA receptors in HEK293 cells (Homo sapiens, UniProt P18507+P31644); assay: In vitro electrophysiological recording assay (α5-GABAAR relative efficacy), SyncroPatch; assay type: cell-based; details: Conc 0.1 μM; GABA EC10-20
T2 construct: expressed in transfected cells
How it was run: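 HEK293 cells stably expressing the receptor, automated whole-cell patch clamp at −80 mV, room temperature (20-22° C). Compound pre-incubated 1-2 min, then co-applied with GABA EC10-20; % change in peak current vs GABA alone (leak-subtracted). Tested generally at ≥100× Ki and normalised to DMCM efficacy as relative efficacy.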

T1 sequence (P31644 32-462): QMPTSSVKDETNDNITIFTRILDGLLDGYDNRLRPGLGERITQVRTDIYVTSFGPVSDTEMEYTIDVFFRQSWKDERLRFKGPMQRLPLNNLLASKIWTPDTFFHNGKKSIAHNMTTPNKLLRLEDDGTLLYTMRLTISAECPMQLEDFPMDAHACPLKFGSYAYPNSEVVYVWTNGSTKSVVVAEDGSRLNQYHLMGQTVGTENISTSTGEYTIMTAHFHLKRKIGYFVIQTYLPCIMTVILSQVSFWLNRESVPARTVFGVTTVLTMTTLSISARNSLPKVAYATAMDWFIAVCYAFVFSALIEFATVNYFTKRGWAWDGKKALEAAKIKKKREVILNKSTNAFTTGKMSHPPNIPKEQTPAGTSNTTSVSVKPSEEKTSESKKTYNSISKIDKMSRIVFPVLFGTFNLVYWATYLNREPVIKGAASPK
T1 sequence (P28472 26-473 partner): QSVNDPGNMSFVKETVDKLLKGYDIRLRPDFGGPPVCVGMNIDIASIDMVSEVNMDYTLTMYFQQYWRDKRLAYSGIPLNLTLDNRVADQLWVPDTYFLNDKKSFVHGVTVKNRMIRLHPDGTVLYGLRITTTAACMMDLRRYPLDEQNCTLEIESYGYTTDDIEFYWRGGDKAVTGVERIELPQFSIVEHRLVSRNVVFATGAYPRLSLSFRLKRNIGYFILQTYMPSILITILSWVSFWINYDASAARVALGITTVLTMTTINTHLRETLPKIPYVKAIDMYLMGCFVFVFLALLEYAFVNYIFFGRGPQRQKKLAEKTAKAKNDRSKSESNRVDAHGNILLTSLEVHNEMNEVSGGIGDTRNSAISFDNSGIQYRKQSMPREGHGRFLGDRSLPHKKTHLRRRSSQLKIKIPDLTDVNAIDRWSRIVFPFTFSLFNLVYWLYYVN
T1 sequence (P18507 40-475): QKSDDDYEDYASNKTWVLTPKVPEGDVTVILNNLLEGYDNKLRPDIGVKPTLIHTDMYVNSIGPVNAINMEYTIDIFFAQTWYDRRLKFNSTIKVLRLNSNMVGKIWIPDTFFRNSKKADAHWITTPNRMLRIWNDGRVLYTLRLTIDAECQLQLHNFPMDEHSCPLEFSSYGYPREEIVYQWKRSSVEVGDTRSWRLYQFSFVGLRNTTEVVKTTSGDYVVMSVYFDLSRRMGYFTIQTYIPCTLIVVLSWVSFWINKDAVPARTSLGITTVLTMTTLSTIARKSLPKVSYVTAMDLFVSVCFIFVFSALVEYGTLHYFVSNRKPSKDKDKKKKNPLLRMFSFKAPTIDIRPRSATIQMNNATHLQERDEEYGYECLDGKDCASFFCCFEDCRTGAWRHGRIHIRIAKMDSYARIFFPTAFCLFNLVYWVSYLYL
T2 sequence (P31644 32-462): as the sequence (P31644 32-462) above
T2 sequence (P28472 26-473 partner): as the sequence (P28472 26-473 partner) above
T2 sequence (P18507 40-475): as the sequence (P18507 40-475) above

GABA-elicited whole-cell current in the presence of compound ([1]; 1 μM, QPatch, same cell before and after addition, FIG. 1): smaller current
α5-GABAAR Relative Efficacy (to DMCM), Qpatch ([1]; Conc 1 μM, GABA EC10-20): −0.91
α5-GABAAR Relative Efficacy (to DMCM), SyncroPatch [2]: −1.11
Compound: COc1nc(-n2ccnc2)ccc1NC(=O)c1c(-c2ccccc2)noc1C [Example 1, N-(6-Imidazol-1-yl-2-methoxy-3-pyridyl)-5-methyl-3-phenyl-isoxazole-4-carboxamide]
